# Results reported in PMC9533837 (Antiviral Research, 2003).
# Read-outs that look alike come from different tables or passages of the source.
# Legend:
# [1] = tested on: VAC Copenhagen; assay: microbe, parasite or virus in culture; type: cell-based, vaccinia virus; settings: for IC50: Orthopoxvirus vaccinia, LLC-MK2, read-out: IC50 VAC LLC-MK2
# [2] = tested on: VAR-BSH (1975 Bangladesh isolate of VAR major); assay: organism not typed; type: cell-based, variola major; settings: for IC50: LLC-MK2, read-out: IC50 VAR-BSH LLC-MK2
# [3] = tested on: orthopoxviruses (VAR-BSH, VAR-YAM, VAR-GAR, MPX, CPX, VAC); assay: organism not typed; type: cell-based
# [4] = tested on: VAR-YAM (1946 Japan Yamada isolate of VAR major); assay: organism not typed; type: cell-based, variola major; settings: for IC50: Vero
# [5] = tested on: VAC; assay: microbe, parasite or virus in culture; type: cell-based; settings: Orthopoxvirus vaccinia, read-out: IC50 against VAC
# [6] = tested on: MPX Zaire (V79-1-005-Scab); assay: organism not typed; type: cell-based, monkeypox; settings: for IC50: Vero
# [7] = tested on: VAR-GAR (1966 Brazil Garcia isolate of VAR minor); assay: organism not typed; type: cell-based, variola minor; settings: for IC50: LLC-MK2, read-out: IC50 VAR-GAR LLC-MK2
# [8] = tested on: Vero cells; settings: African green monkey
# [9] = tested on: VAR-BSH (1975 Bangladesh isolate of VAR major); assay: organism not typed; type: cell-based, variola major; settings: for IC50: Vero
# [10] = tested on: VAC Copenhagen; assay: microbe, parasite or virus in culture; type: cell-based, vaccinia virus; settings: for IC50: Orthopoxvirus vaccinia, Vero, read-out: IC50 VAC Vero
# [11] = tested on: CPX Brighton; assay: organism not typed; type: cell-based, cowpox; settings: for IC50: LLC-MK2, read-out: IC50 CPX LLC-MK2
# [12] = tested on: LLC-MK2 cells; settings: rhesus monkey
# [13] = tested on: MPX Zaire (V79-1-005-Scab); assay: organism not typed; type: cell-based, monkeypox; settings: for IC50: LLC-MK2, read-out: IC50 MPX LLC-MK2
# [14] = tested on: VAR-GAR (1966 Brazil Garcia isolate of VAR minor); assay: organism not typed; type: cell-based, variola minor; settings: for IC50: Vero
# [15] = tested on: VAR-YAM (1946 Japan Yamada isolate of VAR major); assay: organism not typed; type: cell-based, variola major; settings: for IC50: LLC-MK2, read-out: IC50 VAR-YAM LLC-MK2
# [16] = tested on: CPX Brighton; assay: organism not typed; type: cell-based, cowpox; settings: for IC50: Vero
# [17] = tested on: VAR isolate V70-46; assay: organism not typed; type: cell-based, variola; settings: Vero, read-out: IC50, VAR isolate V70-46
# [18] = tested on: VAR isolate Butler; assay: organism not typed; type: cell-based, variola minor; settings: Vero, read-out: IC50, VAR isolate Butler
# [19] = tested on: VAR isolate V70-222; assay: organism not typed; type: cell-based, variola; settings: Vero, read-out: IC50, VAR isolate V70-222
# [20] = tested on: VAR isolate Shahzaman; assay: organism not typed; type: cell-based, variola; settings: Vero, read-out: IC50, VAR isolate Shahzaman
# [21] = tested on: VAR isolate Rafig Lahore; assay: organism not typed; type: cell-based, variola; settings: Vero, read-out: IC50, VAR isolate Rafig Lahore
# [22] = tested on: VAR isolate Iran 2602; assay: organism not typed; type: cell-based, variola; settings: Vero, read-out: IC50, VAR isolate Iran 2602
# [23] = tested on: VAR isolate Hinden; assay: organism not typed; type: cell-based, variola; settings: Vero, read-out: IC50, VAR isolate Hinden
# [24] = tested on: VAR isolate Rumbec; assay: organism not typed; type: cell-based, variola; settings: Vero, read-out: IC50, VAR isolate Rumbec
# [25] = tested on: VAR isolate Minn124; assay: organism not typed; type: cell-based, variola minor; settings: Vero, read-out: IC50, VAR isolate Minn124
# [26] = tested on: all VAR isolates tested; assay: organism not typed; type: cell-based, variola; settings: Vero, read-out: IC50, VAR mean
# [27] = tested on: VAR isolate 7125; assay: organism not typed; type: cell-based, variola; settings: Vero, read-out: IC50, VAR isolate 7125
# [28] = tested on: VAR isolate Heidelberg; assay: organism not typed; type: cell-based, variola; settings: Vero, read-out: IC50, VAR isolate Heidelberg
# [29] = tested on: VAR isolate V73-175; assay: organism not typed; type: cell-based, variola; settings: Vero, read-out: IC50, VAR isolate V73-175
# [30] = tested on: VAR isolate K1629; assay: organism not typed; type: cell-based, variola; settings: Vero, read-out: IC50, VAR isolate K1629
# [31] = tested on: VAR isolate 102; assay: organism not typed; type: cell-based, variola; settings: Vero, read-out: IC50, VAR isolate 102
# [32] = tested on: VAR isolate V74-227; assay: organism not typed; type: cell-based, variola; settings: Vero, read-out: IC50, VAR isolate V74-227
# [33] = tested on: VAR isolate Eth17; assay: organism not typed; type: cell-based, variola; settings: Vero, read-out: IC50, VAR isolate Eth17
# [34] = tested on: VAR isolate Somalia; assay: organism not typed; type: cell-based, variola; settings: Vero, read-out: IC50, VAR isolate Somalia
# [35] = tested on: VAR isolate V77-1605; assay: organism not typed; type: cell-based, variola; settings: Vero, read-out: IC50, VAR isolate V77-1605
# [36] = tested on: VAR isolate V73-225; assay: organism not typed; type: cell-based, variola; settings: Vero, read-out: IC50, VAR isolate V73-225
# [37] = tested on: VAR isolate V72-119; assay: organism not typed; type: cell-based, variola; settings: Vero, read-out: IC50, VAR isolate V72-119
# [38] = tested on: VAR isolate V68-59; assay: organism not typed; type: cell-based, variola minor; settings: Vero, read-out: IC50, VAR isolate V68-59
# [39] = tested on: VAR isolate Horn; assay: organism not typed; type: cell-based, variola; settings: Vero, read-out: IC50, VAR isolate Horn
# [40] = tested on: VAR isolate Higgins; assay: organism not typed; type: cell-based, variola; settings: Vero, read-out: IC50, VAR isolate Higgins
# [41] = tested on: VAR isolate Jee; assay: organism not typed; type: cell-based, variola; settings: Vero, read-out: IC50, VAR isolate Jee
# [42] = tested on: VAR isolate 7124; assay: organism not typed; type: cell-based, variola; settings: Vero, read-out: IC50, VAR isolate 7124
structure (smiles),measurement,setting,value
"CC(C)(C)C(=O)OCOP(=O)(COCCn1cnc2c(N)ncnc21)OCOC(=O)C(C)(C)C [bis-POM-PMEA, 9-[2-[[bis[(pivaloyloxy)-methoxy]phosphinyl]methoxy]ethyl]adenine]",Therapeutic index (TI) VAC LLC-MK2,[1],1.5
same,IC50,[1],66.2 µg/mL
same,Therapeutic index (TI) VAR-BSH LLC-MK2,[2],1.0
same,IC50,[2],> 100 µg/mL
same,inhibitory activity against the orthopoxviruses tested (in words),[3],Neither PMEA nor bis-POM-PMEA was effective
same,Therapeutic index (TI) VAR-YAM Vero,[4],1.0
same,IC50,[4]; read-out: IC50 VAR-YAM Vero,> 100 µg/mL
same,IC50,[5],55.1 µg/mL
same,Therapeutic index (TI) MPX Vero,[6],1.0
same,IC50,[6]; read-out: IC50 MPX Vero,> 100 µg/mL
same,Therapeutic index (TI) VAR-GAR LLC-MK2,[7],1.2
same,IC50,[7],85 µg/mL
same,Cytotoxicity TC50 Vero,[8],>100 µg/mL
same,Therapeutic index (TI) VAR-BSH Vero,[9],1.2
same,IC50,[9]; read-out: IC50 VAR-BSH Vero,84.2 µg/mL
same,Therapeutic index (TI) VAC Vero,[10],2.3
same,IC50,[10],44 µg/mL
same,Therapeutic index (TI) CPX LLC-MK2,[11],1.2
same,IC50,[11],86 µg/mL
same,Cytotoxicity TC50 LLC-MK2,[12],>100 µg/mL
same,Therapeutic index (TI) MPX LLC-MK2,[13],1.0
same,IC50,[13],> 100 µg/mL
same,Therapeutic index (TI) VAR-GAR Vero,[14],1.1
same,IC50,[14]; read-out: IC50 VAR-GAR Vero,90 µg/mL
same,Therapeutic index (TI) VAR-YAM LLC-MK2,[15],1.0
same,IC50,[15],> 100 µg/mL
same,Therapeutic index (TI) CPX Vero,[16],1.3
same,IC50,[16]; read-out: IC50 CPX Vero,75.5 µg/mL
"Nc1ccn(C[C@H]2COP(=O)(O)CO2)c(=O)n1 [cHPMPC, 1-[(S)-2-hydroxy-2-oxo-1-[4,2-dioxaphosphorinan-5-yl]methyl]cytosine]",IC50,[17],13 µg/mL
same,IC50,[18],6 µg/mL
same,IC50,[19],23 µg/mL
same,IC50,[20],14 µg/mL
same,IC50,[21],18 µg/mL
same,Therapeutic index (TI) VAC LLC-MK2,[1],22.7
same,IC50,[1],4.4 µg/mL
same,IC50,[22],7 µg/mL
same,IC50,[23],19 µg/mL
same,Therapeutic index (TI) VAR-BSH LLC-MK2,[2],4.9
same,IC50,[2],20.3 µg/mL
same,IC50,[3]; read-out: mean IC50 against the panel of viruses,21.6 ± 7.6 µg/mL
same,Therapeutic index (TI) VAR-YAM Vero,[4],2.8
same,IC50,"[4]; read-out: IC50, VAR isolate Yamada",31 µg/mL
same,IC50,[4]; read-out: IC50 VAR-YAM Vero,28.2 µg/mL
same,IC50,[24],16 µg/mL
same,Therapeutic index (TI) MPX Vero,[6],6.5
same,IC50,"[6]; read-out: IC50, MPX",21 µg/mL
same,IC50,[6]; read-out: IC50 MPX Vero,12.3 µg/mL
same,Therapeutic index (TI) VAR-GAR LLC-MK2,[7],16.9
same,IC50,[7],5.9 µg/mL
same,Cytotoxicity TC50 Vero,[8],80.0 µg/mL
same,Therapeutic index (TI) VAR-BSH Vero,[9],3.2
same,IC50,"[9]; read-out: IC50, VAR isolate Bangladesh",17 µg/mL
same,IC50,[9]; read-out: IC50 VAR-BSH Vero,25.3 µg/mL
same,Therapeutic index (TI) VAC Vero,[10],4.4
same,IC50,[10],18.1 µg/mL
same,IC50,[25],9 µg/mL
same,Therapeutic index (TI) CPX LLC-MK2,[11],1.0
same,IC50,[11],> 100 µg/mL
same,Cytotoxicity TC50 LLC-MK2,[12],>100 µg/mL
same,IC50,[26],17 ± 2 µg/mL
same,IC50,[27],24 µg/mL
same,IC50,[28],14 µg/mL
same,IC50,[29],16 µg/mL
same,Therapeutic index (TI) MPX LLC-MK2,[13],29.4
same,IC50,[13],3.4 µg/mL
same,Therapeutic index (TI) VAR-GAR Vero,[14],10.1
same,IC50,"[14]; read-out: IC50, VAR isolate Garcia",4 µg/mL
same,IC50,[14]; read-out: IC50 VAR-GAR Vero,7.9 µg/mL
same,IC50,[30],25 µg/mL
same,IC50,[31],38 µg/mL
same,IC50,[32],9 µg/mL
same,Therapeutic index (TI) VAR-YAM LLC-MK2,[15],16.4
same,IC50,[15],6.1 µg/mL
same,IC50,[33],17 µg/mL
same,IC50,[34],8 µg/mL
same,IC50,[35],22 µg/mL
same,IC50,[36],9 µg/mL
same,IC50,[37],18 µg/mL
same,IC50,[38],20 µg/mL
same,IC50,[39],12 µg/mL
same,Therapeutic index (TI) CPX Vero,[16],3.0
same,IC50,"[16]; read-out: IC50, CPX",52 µg/mL
same,IC50,[16]; read-out: IC50 CPX Vero,26.9 µg/mL
same,IC50,[40],17 µg/mL
same,IC50,[41],7 µg/mL
same,IC50,[42],26 µg/mL
